{"source": "patent US20020184656A1", "about": "“In vivo assay system for screening and validation of drugs and other substances” (priority 2001, published 2002)", "key": {"[1]": {"test_system": "transgenic flies expressing human APC (hAPC/CBD) in developing eyes (using ey-GAL4)", "test": "Drug screening on human APC-induced eye phenotypes in transgenic flies (drug in fly food)", "format": "in vivo, Drosophila", "conditions": "for Total number of flies with eye phenotypes (in parenthesis: total number of flies of right genotype) / Number of flies with eye phenotypic ranks 6-10 / Number of flies with eye phenotypic ranks 11-15 / Number of flies with eye phenotypic ranks 1-5 / Number of flies with eye phenotypic ranks 16-20: Ey-GAL4, hAPC/CBD", "description": "Table 1 Distribution of eye phenotypes induced by hAPC/CBD in different genetic backgrounds and in the presence of various compounds and other anti-cancer drugs. Numbers are from a representative experiment. Number in parenthesis in the last column indicates total number of the flies of right genotype.\n(§1) In yet another embodiment of the present invention, LD50 is determined for each of the chemicals tested. At concentrations LD50 and below, none of the drugs induce any morphological phenotypes in wildtype flies. Thereafter, the effect of these drugs on transgenic flies expressing human APC in developing eyes (using ey-GAL4) is examined.\nEye phenotypes induced by human APC are arranged in the order of severity from 1 to 20. Human APC in wildtype background induced phenotypes of ranks 1-9. […] WT—wild type eye.\n(§2) For drug screening, drugs (at different concentrations) were added to fly food at <50° C. and left over-night for drying. Care was taken to ensure homogenous mixing of the drug in the fly food. Blind-tests were carried out, wherein the vials with or without drugs were coded (with the help of other members of the lab). The crosses were always set-up in triplicates. The method of administering drugs described above is only an example and should not be limited to it as there can be other ways of administering drugs."}, "Drosophila": {"test_system": "Drosophila", "test": "LD50 determination of the drugs in flies", "format": "in vivo", "conditions": "drug in fly food", "description": "as §1, §2"}, "[2]": {"conditions": "50 micrograms/ml fly food, 47 flies of right genotype"}, "[3]": {"conditions": "200 microgram/ml fly food, 121 flies of right genotype"}, "[4]": {"conditions": "500 micrograms/ml fly food, 59 flies of right genotype"}, "[5]": {"conditions": "200 micrograms/ml fly food, 61 flies of right genotype"}}, "data": [{"smiles": "O=c1[nH]cc(F)c(=O)[nH]1", "note": "[5-fluorouracil]", "values": [{"measurement": "Total number of flies with eye phenotypes (in parenthesis: total number of flies of right genotype)", "setting": "[1]; 50 micrograms/ml fly food", "value": "14(47)"}, {"measurement": "Number of flies with eye phenotypic ranks 6-10", "setting": "[1]; [2]", "value": 4}, {"measurement": "Number of flies with eye phenotypic ranks 11-15", "setting": "[1]; [2]", "value": 1}, {"measurement": "Number of flies with eye phenotypic ranks 1-5", "setting": "[1]; 50 micrograms/ml fly food, 47 flies of right genotype, severity ranks 1 to 20", "value": 9}]}, {"smiles": "COc1ccc2c(c1)c(CC(=O)O)c(C)n2C(=O)c1ccc(Cl)cc1", "note": "[Indomethacin]", "values": [{"measurement": "Total number of flies with eye phenotypes (in parenthesis: total number of flies of right genotype)", "setting": "[1]; 200 microgram/ml fly food", "value": "47(121)"}, {"measurement": "Number of flies with eye phenotypic ranks 1-5", "setting": "[1]; [3]", "value": 12}, {"measurement": "Number of flies with eye phenotypic ranks 6-10", "setting": "[1]; [3]", "value": 8}, {"measurement": "Number of flies with eye phenotypic ranks 11-15", "setting": "[1]; [3]", "value": 16}, {"measurement": "Number of flies with eye phenotypic ranks 16-20", "setting": "[1]; [3]", "value": 11}, {"measurement": "Effect on human APC-induced eye phenotypes", "setting": "[1]; ey-GAL4, extent similar to the enhancement shown by Df(3R)by^62", "value": "enhances human APC-induced eye phenotypes"}, {"measurement": "Concentration dependence of the effect on human APC-induced eye phenotypes", "setting": "[1]; ey-GAL4, human APC", "value": "concentration dependent"}, {"measurement": "Concentration of maximum effect on human APC-induced eye phenotypes", "setting": "[1]; ey-GAL4, human APC", "value": "200 μg/ml of fly food"}, {"measurement": "Ranks of eye phenotypes observed (severity 1 to 20)", "setting": "[1]; human APC in wildtype background without drug: ranks 1-9, often resulting eyeless flies", "value": "1-20"}, {"measurement": "LD50", "setting": "Drosophila", "value": "250 μg/ml of fly food"}]}, {"smiles": "CN1C(C(=O)Nc2ccccn2)=C(O)c2ccccc2S1(=O)=O", "note": "[Pyroxicam]", "values": [{"measurement": "Total number of flies with eye phenotypes (in parenthesis: total number of flies of right genotype)", "setting": "[1]; 500 micrograms/ml fly food", "value": "21(59)"}, {"measurement": "Number of flies with eye phenotypic ranks 1-5", "setting": "[1]; [4]", "value": 11}, {"measurement": "Number of flies with eye phenotypic ranks 6-10", "setting": "[1]; [4]", "value": 7}, {"measurement": "Number of flies with eye phenotypic ranks 11-15", "setting": "[1]; [4]", "value": 1}, {"measurement": "Number of flies with eye phenotypic ranks 16-20", "setting": "[1]; [4]", "value": 2}]}, {"smiles": "CC(=O)Oc1ccccc1C(=O)O", "note": "[aspirin]", "values": [{"measurement": "Total number of flies with eye phenotypes (in parenthesis: total number of flies of right genotype)", "setting": "[1]; 200 micrograms/ml fly food", "value": "19(61)"}, {"measurement": "Number of flies with eye phenotypic ranks 1-5", "setting": "[1]; [5]", "value": 13}, {"measurement": "Number of flies with eye phenotypic ranks 6-10", "setting": "[1]; [5]", "value": 4}, {"measurement": "Number of flies with eye phenotypic ranks 11-15", "setting": "[1]; [5]", "value": 2}]}]}
